≈ marks a conversion by molar mass, not a printed value.
Key:
[1] = system: Lactobacillus plantarum Tensia DSM 21380; test: Antibiotic resistance, E-test MIC; format: cell-based; conditions: E-test strips
Experimental: Method. Lactobacillus plantarum Tensia DSM 21380 was tested using antibiotic strips of the E-test (AB Biodisk, Solna).

L. plantarum DSM 21379 = test: Antibiotic resistance, E-test MIC, control strain; format: cell-based, Lactobacillus plantarum; conditions: E-test strips

Compound | MIC L. plantarum Tensia DSM 21380 [1] [µg/mL] | MIC Control strain L. plantarum DSM 21379 (L. plantarum DSM 21379) [µg/mL]
CC[C@H]1OC(=O)[C@H](C)[C@@H](O[C@H]2C[C@@](C)(OC)[C@@H](O)[C@H](C)O2)[C@H](C)[C@@H](O[C@@H]2O[C@H](C)C[C@H](N(C)C)[C@H]2O)[C@](C)(O)C[C@@H](C)C(=O)[C@H](C)[C@@H](O)[C@]1(C)O [Erytromycin] | 0.19 (≈ 0.259 µM) | 0.25 (≈ 0.341 µM)
Cipro/ofloxacin | 32 | 32
Gentamicin | 1.5 | 1
Quinopristin/dalfopristin | 1 | 1

Reference: patent US20140328814A1, “ANTIMICROBIAL AND […] PROBIOTIC COMPOSITION, FOOD PRODUCT AND DIETARY SUPPLEMENT COMPRISING MICROORGANISM STRAIN LACTOBACILLUS […] TENSIA DSM 21380 AND METHOD FOR SUPPRESSING CONTAMINATING MICROBES IN A FOOD PRODUCT” (Oü Tervisliku Piima Biotehnoloogiate Arenduskeskus …, priority 2008, published 2014)
